The source of these data is patent US20260193531A1, “LIQUID WEIGHTING AGENTS FOR OIL-BASED FLUIDS” (Albemarle Corporation, priority 2022, published 2026).

Series [1] can be described thus: Density of the esters and ester mixtures. The series is classed as physicochemical.
Series [2] can be described thus: Closed-bottle anaerobic biodegradation test, EPA Method 1647 (275 days). The settings on record: Duration 275 days. Here is the method:
Anaerobic biodegradation testing. […] For each substance, four samples were run. Each test was compared to separate standard samples containing ethyl oleate, squalane, 1-hexadecene, C16-18 internal olefin, or no additive. To pass the test, the sample must have more net biodegradation than the C16-18 internal olefin. The testing procedure was as follows: • 1. Each test mixture was prepared by combining with 2000 mg carbon (sample) per kg of natural sediment; 30 grams of the mixture were used for each sample run. The carbon content of the sample was measured before mixing the sample with the sediment. […] After a bottle was capped, a nitrogen sparge was employed to remove air in the headspace of the bottle before incubation was started. • 3. During the incubation period, the sample is kept at a constant temperature of 29±1° C. • 4. […] Each sample was brought to ambient temperature to make each measurement. Gas production was measured with a pressure gauge, and barometric pressure was also measured at the time of measurement to make volume corrections.

For another series, the system named is Leptocheirus plumulosus. The series is classed as in vivo. The settings on record: for Quantity: estimate. The method, then:
Sediment toxicity testing. Sediment toxicity testing was according to U.S. Environmental Protection Agency Method 1644, the “Method for Conducting a Sediment Toxicity Test with Leptocheirus plumulosus and Non-Aqueous Drilling Fluids or Synthetic-Based Drilling Muds”. The testing procedure was as follows: • 1. Leptocheirus plumulosus amphipods were cultured and maintained in natural sediment at 23±2° C. before being exposed to a test sample. • 2. A sample contained sediment, synthetic seawater, and the substance being tested. Five samples of each substance were prepared and tested, the sample having concentrations of 100, 200, 400, 800, and 1600 mg/kg of the substance to be tested. • 3. For each sample, a 1-liter jar was prepared with approximately 150 mL of formulated sediment with 600 mL of synthetic sea water, and the substance to be tested. • 4. In each test, 20 Leptocheirus plumulosus amphipods were exposed to the sample at 20±1° C. for 10 days in the 1-L closed jar; the Leptocheirus plumulosus amphipods were not fed after the test was initiated. • 5. At the end of 10 days, the Leptocheirus plumulosus amphipods remaining alive were counted and an LC50 value was predicted based on those results.

Series [3] in a line: Miscibility with a base oil (solid formation or phase separation after one week). The series is classed as physicochemical. The settings on record: 50:50 weight mixture with a base oil; for miscibility: room temperature. Here is the method: Some of the liquid weighting agents of this invention are usable as oil-miscible weighting agents (OMWA). As used throughout this document, the term “miscible” means that emulsions and/or separate phases are not observed in a 50:50 weight mixture of one or more of the liquid weighting agents of this invention (total of 50 wt %) and an oil (50 wt %) after the mixture has been kept at 0° C. for one week. Similarly, as used throughout this document, the term “partially miscible” means that emulsions and/or separate phases are not observed in a 50:50 weight mixture of one or more of the liquid weighting agents of this invention (total of 50 wt %) and an oil (50 wt %) after the mixture has been kept at room temperature for one week.
The tribromoneopentyl esters were each combined with a base oil in a 50:50 weight mixture.
Some of the tribromoneopentyl monoesters were tested in pairs in a base oil in a 25:25:50 weight ratio, with 25 wt % of each tribromoneopentyl monoester and 50 wt % of the base oil.
The dibromoallyl esters were each combined with a base oil in a 50:50 weight mixture.
Several mixtures of a monoester containing a terminal alkene moiety were tested in a base oil in a 50:50 weight mixture.
Several mixtures of a tribromoneopentyl monoester and a monoester containing a terminal alkene moiety were tested in a base oil in a 25:25:50 weight ratio, with 25 wt % of the tribromoneopentyl monoester, 25 wt % of 2,3-dibromoprop-2-en-1-yl propanoate, and 50 wt % of the base oil.

Where [4] appears, read: sediment toxicity test, Pass/Fail.

Like-named read-outs stand apart in the source and are kept apart here.

`O=C(CBr)OCC(CBr)(CBr)COC(=O)CBr` [2,2-bis(bromomethyl)1,3-propanediol-1,3-bis-(bromoacetate)]: the Density in series [1] is recorded as 2.13 g/mL.
The same measure, in the same setting: with `CC(C)C(=O)OCC(CBr)(CBr)COC(=O)C(C)C` [2,2-bis(bromomethyl)1,3-propanediol-1,3-di(2-methylpropanoate)] the figure was 1.46 g/mL.
For the molecule `CCCCCC(=O)OCC(CBr)(CBr)COC(=O)CCCCC` [2,2-bis(bromomethyl)1,3-propanediol-1,3-dihexanoate], the Amount biodegradation in series [2] is given as 7.36%. Moreover, in series [1], the Density was found to be 1.28 g/mL. Also, in the series on Leptocheirus plumulosus (in vivo), the Result entry is “Pass”.
For `CCC(=O)OCC(CBr)(CBr)COC(=O)CC` [2,2-bis(bromomethyl)1,3-propanediol-1,3-dipropionate], the Density in series [1] is 1.62 g/mL.
Regarding `CC(C)C(=O)OCC(Br)=CBr` [2,3-dibromoallyl 2-methylpropanoate], in series [3] (kept at −18° C. for one week), the “solid formation or phase separation” value is on record as “no solid formation or phase separation was observed”. Besides, in series [3], the miscibility entry was “miscible”. The Density in series [1] is 1.70 g/mL.
As for `CC(=O)OCC(Br)=CBr` [2,3-dibromoallyl acetate], in series [3] (0° C. for one week), the “solid formation or phase separation” value is given as “no solid formation or phase separation was observed”. For the same molecule, the Density in series [1] came to 1.83 g/mL.
As to `CCC(=O)OCC(Br)=CBr` [2,3-dibromoallyl propionate], the “solid formation or phase separation” value in series [3] (kept at −18° C. for one week) was “no solid formation or phase separation was observed”. Also, the miscibility result in series [3] is “miscible”. The Density in series [1] worked out at 1.79 g/mL.
In the case of `CC(C)C(=O)OC/C(Br)=C(\Br)COC(=O)C(C)C` [(2E)-2,3-dibromobut-2-ene-1,4-diyl bis(2-methylpropanoate)], the Density in series [1] is listed as 1.49 g/mL.
Still for that read-out and setting: the same measure for `CCC(Br)C(=O)OC/C(Br)=C(\Br)COC(=O)C(Br)CC` (centres unmarked) [(2E)-2,3-dibromobut-2-ene-1,4-diyl bis(2′-bromobutyrate)]: 1.94 g/mL.
Molecule `CCC(=O)OC/C(Br)=C(\Br)COC(=O)CC` [(2E)-2,3-dibromobut-2-ene-1,4-diyl bis(propanoate)] had an Amount biodegradation in series [2] of 54.64%. Further, in series [1], the Density was found to be 1.59 g/mL. Moreover, the Result entry with Leptocheirus plumulosus (in vivo) is recorded as “Pass”.
Take `O=C(CBr)OC/C=C\COC(=O)CBr` [(2Z)-but-2-ene-1,4-diyl bis(bromoacetate)]: the Density in series [1] is listed as 1.74 g/mL.
With `CC(C)C(=O)OCc1cc(Br)cc(Br)c1` [(3,5-dibromophenyl)methyl 2-methylpropanoate], the Density in series [1] came out at 1.62 g/mL.
Same read-out and setting: with `CC(=O)OCc1cc(Br)cc(Br)c1` [(3,5-dibromophenyl)methyl acetate] the figure was 1.76 g/mL; with `O=C(CBr)OCc1cc(Br)cc(Br)c1` [(3,5-dibromophenyl)methyl bromoacetate], 2.06 g/mL.
As for `CCCC(=O)OCc1cc(Br)cc(Br)c1` [(3,5-dibromophenyl)methyl butyrate], in series [2], the Amount biodegradation was 25.1%. Moreover, in series [1], the Density worked out at 1.62 g/mL.
For `CCCCC(=O)OCc1cc(Br)cc(Br)c1` [(3,5-dibromophenyl)methyl pentanoate], in series [1], the Density is 1.56 g/mL.
The same measure, in the same setting: with `CCC(=O)OCc1cc(Br)cc(Br)c1` [(3,5-dibromophenyl)methyl propionate] the figure was 1.68 g/mL; with `O=C(CBr)OCC(COC(=O)CBr)OC(=O)CBr` [propane-1,2,3-triyl tris (bromoacetate)], 1.95 g/mL.
`CC(C)C(=O)OCC(CBr)(CBr)CBr` [tribromoneopentyl 2-methylpropanoate, 3-bromo-2,2-bis(bromomethyl)propyl 2-methylpropanoate]: in series [1], the Density was 1.79 g/mL. Besides, the Result result in the series on Leptocheirus plumulosus (setting [4]) is “Fail”. In addition, the Quantity in the series on Leptocheirus plumulosus (sediment toxicity test) is given as ~243 mg/kg (estimate).
In the case of `CCCC(=O)OCC(CBr)(CBr)CBr` [tribromoneopentyl butyrate, 3-bromo-2,2-bis(bromomethyl)propyl butyrate], in series [3] (0° C. for one week), the “solid formation or phase separation” value is recorded as “no solid formation or phase separation was observed”. For the same molecule, in series [1], the Density turned out to be 1.79 g/mL.
As to `CCCCCC(=O)OCC(CBr)(CBr)CBr` [tribromoneopentyl hexanoate, 3-bromo-2,2-bis(bromomethyl)propyl hexanoate], the Density in series [1] came to 1.57 g/mL.
Still for that read-out and setting: the same measure for `CC(C)CC(=O)OCC(CBr)(CBr)CBr` [tribromoneopentyl isovalerate, 3-bromo-2,2-bis(bromomethyl)propyl isovalerate]: 1.73 g/mL.
Consider `CCC(=O)OCC(CBr)(CBr)CBr` [tribromoneopentyl propionate, 3-bromo-2,2-bis(bromomethyl)propyl propionate], for which the “solid formation or phase separation” value in series [3] (0° C. for one week) and in series [3] (kept at −18° C. for one week) was “phase separation was observed” in each case. Besides, the Density in series [1] amounted to 1.87 g/mL.
With `CCCCC(=O)OCC(CBr)(CBr)CBr` [tribromoneopentyl valerate, 3-bromo-2,2-bis(bromomethyl)propyl pentanoate], the Density in series [1] was determined as 1.72 g/mL. The Result entry with Leptocheirus plumulosus (setting [4]) is listed as “Pass”. Besides, the Quantity in the series on Leptocheirus plumulosus (sediment toxicity test) is given as ~363 mg/kg (estimate).
